Data from patent US11123357B2, “Methods and compositions for treating oral mucositis” (Lakewood Amedex, Inc., priority 2018, dated 2021).

Assays:
[1] = test system: oral mucositis induced by acute radiation; assay: Oral mucositis induced by acute radiation in hamsters (blinded mucositis scoring); type: in vivo, Syrian Golden Hamsters; design: key to peak mean mucositis score: 0 = normal, 5 = severe ulceration (photographic scale); conditions: for % Days ≥ 3 / Days < 3 (animal days with mucositis score <3) / Days ≥ 3 (animal days with mucositis score ≥3): through Day 28
Excerpt: The objective of the study was to test the efficacy of Nu-8 in the treatment of oral mucositis induced by acute radiation in hamsters.
Normal male Syrian Golden Hamsters (Charles River Laboratories), aged 5 to 6 weeks, with average body weight (±SD) of 92.83±3.36 g at study commencement, were used. Animals were individually numbered using an ear punch and housed in small groups. Animals were acclimatized prior to study commencement. During this period, the animals were observed daily in order to reject animals that were in poor condition.
Animals were randomly and prospectively divided into three (3) groups of eight (8) animals each prior to irradiation. Each animal was identified by an ear punch corresponding to an individual number. A cage card was used to identify each cage or label marked with the study number (LKW-01), treatment group number and animal numbers.
Formulation: • 1. Make fresh daily. Weigh out necessary amount of compound and dissolve in normal saline. Titrate with citric acid to bring pH of solution down to approximate 3.5 (pH range 3 to 4). • 2. The vehicle administered to animals in Group 1 was also titrated with citric acid to a pH of ˜3.5 (pH range 3 to 4).
Mucositis was induced using a single of radiation (40 Gy) administered on Day 0. Radiation was generated with a 160-kilovolt potential (18.75-ma) source at a focal distance of 10 cm, hardened with a 3.0 mm Al filtration system. Irradiation targeted the left buccal pouch mucosa at a rate of 2-2.5 Gy/minute. Prior to irradiation, animals were anesthetized with an intraperitoneal injection of ketamine (160 mg/kg) and xylazine (8 mg/kg). The left buccal pouch was everted, fixed and isolated using a lead shield.
Starting on Day 6 and continuing every second day thereafter (Days 8, 10, 12, 14, 16, 18, 20, 22, 24, 26, 28) each animal was photographed and evaluated for mucositis scoring. For the evaluation of mucositis, the animals were anesthetized with an inhalation anesthetic and the left pouch everted. Mucositis was scored visually by comparison to a validated photographic scale (FIGS. 1A-1F), ranging from 0 for normal, to 5 for severe ulceration (clinical scoring). In descriptive terms, this scale is defined as follows: […]
A score of 1-2 is considered to represent a mild stage of the disease, whereas a score of 3-5 is considered to indicate moderate to severe ulcerative mucositis. Following visual clinical scoring, a photograph was taken of each animal's mucosa using a standardized technique. At the conclusion of the experiment, the photographs were randomly numbered and scored by two independent, trained observers who graded the images in blinded fashion using the above-described scale (blinded scoring). For each photograph, the actual blinded score was based on the average of the 2 observers' scores. Only the scores from the blinded, photographic evaluation were reported and used for statistical analyses. Hamsters reaching a mucositis severity score of 4 or higher received buprenorphine (0.5 mg/kg) SC twice a day for 48 hours or until score dropped below 4. Statistical Analyses
Using the blinded photographs, statistical differences between treatment groups were determined using Mann-Whitney Rank Sum test and chi-square analysis with a critical value of 0.05. It was anticipated that up to 10% animal death may occur, primarily as a result of the administration of anesthetics. However, the number of animals expected to remain alive at Day 28 (6 per treatment group) was considered acceptable for statistical evaluation.
The difference in the number of days hamsters in each group have severe mucositis (score ≥3) was analyzed. On each day the animals were scored (evaluation day), the number of animals with a blinded mucositis score of ≥3 in each treatment group was compared to the Vehicle control group. Differences were analyzed on a daily as well as a cumulative basis. […]

[2] = Mean daily percent body weight change in irradiated hamsters; type: in vivo, Syrian Golden Hamsters; conditions: Group 3 (10% Nu-8, TID topical); p<0.05
Excerpt: The mean daily percent body weight change data are shown in FIG. 2 for animals in all groups. Animals steadily gained weight throughout the duration of the study.

Q: Which results are given for `CCCCOP(=O)(O)OC[C@H]1O[C@@H](n2ccc(N)nc2=O)C[C@@H]1OP(=O)(O)OCCCC` [Nu-8, ((2R,3S,5R)-5-(4-amino-2-oxopyrimidin-1(2H)-yl)-3-((butoxyoxidophosphor-yl)oxy)tetrahydrofuran-2-yl)methyl butyl phosphate]?
A: days of significant improvement in mucositis scores vs. Vehicle (Mann-Whitney rank sum) ([1]; 1% Nu-8 (Group 2)): one day of significant improvement; Chi Sq vs. Vehicle (animal days with score ≥3) ([1]; 1% Nu-8, TID topical): 2.094; Percent Ulceration by Day (Score ≥ 3) ([1]; 1% Nu-8, TID topical, Day 6): 0.0%; Percent Ulceration by Day (Score ≥ 3) ([1]; 1% Nu-8, TID topical, Day 8): 0.0%; Percent Ulceration by Day (Score ≥ 3) ([1]; 1% Nu-8, TID topical, Day 10): 0.0%; Percent Ulceration by Day (Score ≥ 3) ([1]; 1% Nu-8, TID topical, Day 12): 0.0%; Percent Ulceration by Day (Score ≥ 3) ([1]; 1% Nu-8, TID topical, Day 14): 12.5%; Percent Ulceration by Day (Score ≥ 3) ([1]; 1% Nu-8, TID topical, Day 16): 50.0%; Percent Ulceration by Day (Score ≥ 3) ([1]; 1% Nu-8, TID topical, Day 18): 87.5%; Percent Ulceration by Day (Score ≥ 3) ([1]; 1% Nu-8, TID topical, Day 20): 87.5%; Percent Ulceration by Day (Score ≥ 3) ([1]; 1% Nu-8, TID topical, Day 22): 87.5%; Percent Ulceration by Day (Score ≥ 3) ([1]; 1% Nu-8, TID topical, Day 24): 87.5%; Percent Ulceration by Day (Score ≥ 3) ([1]; 1% Nu-8, TID topical, Day 26): 50.0%; Percent Ulceration by Day (Score ≥ 3) ([1]; 1% Nu-8, TID topical, Day 28): 25.0%; peak mean mucositis score ([1]; 1% Nu-8, TID topical, on Day 18): 2.88±0.13; % Days ≥ 3 ([1]; 1% Nu-8, TID topical): 40.63%; Days < 3 (animal days with mucositis score <3) ([1]; 1% Nu-8, TID topical): 57; Days ≥ 3 (animal days with mucositis score ≥3) ([1]; 1% Nu-8, TID topical): 39; days of significant improvement in mucositis scores vs. Vehicle (Mann-Whitney rank sum) ([1]; 10% Nu-8 (Group 3)): multiple days of significant improvement; Chi Sq vs. Vehicle (animal days with score ≥3) ([1]; 10% Nu-8, TID topical): 30.762; disease severity in comparison to vehicle-dosed animals ([1]; 10% Nu-8, TID topical): robust mitigation of disease severity; Percent Ulceration by Day (Score ≥ 3) ([1]; 10% Nu-8, TID topical, Day 6): 0.0%; Percent Ulceration by Day (Score ≥ 3) ([1]; 10% Nu-8, TID topical, Day 8): 0.0%; Percent Ulceration by Day (Score ≥ 3) ([1]; 10% Nu-8, TID topical, Day 10): 0.0%; Percent Ulceration by Day (Score ≥ 3) ([1]; 10% Nu-8, TID topical, Day 12): 0.0%; Percent Ulceration by Day (Score ≥ 3) ([1]; 10% Nu-8, TID topical, Day 14): 12.5%; Percent Ulceration by Day (Score ≥ 3) ([1]; 10% Nu-8, TID topical, Day 16): 25.0%; Percent Ulceration by Day (Score ≥ 3) ([1]; 10% Nu-8, TID topical, Day 18): 25.0%; Percent Ulceration by Day (Score ≥ 3) ([1]; 10% Nu-8, TID topical, Day 20): 25.0%; Percent Ulceration by Day (Score ≥ 3) ([1]; 10% Nu-8, TID topical, Day 22): 25.0%; Percent Ulceration by Day (Score ≥ 3) ([1]; 10% Nu-8, TID topical, Day 24): 12.5%; Percent Ulceration by Day (Score ≥ 3) ([1]; 10% Nu-8, TID topical, Day 26): 0.0%; Percent Ulceration by Day (Score ≥ 3) ([1]; 10% Nu-8, TID topical, Day 28): 0.0%; peak mean mucositis score ([1]; 10% Nu-8, TID topical, on Days 16 & 18): 2.29±0.18; % Days ≥ 3 ([1]; 10% Nu-8, TID topical): 11.90%; Days < 3 (animal days with mucositis score <3) ([1]; 10% Nu-8, TID topical): 74; Days ≥ 3 (animal days with mucositis score ≥3) ([1]; 10% Nu-8, TID topical): 10; percentage of days with a score of ≥3 in comparison to the Vehicle control group ([1]; 10% Nu-8, chi-square analysis): statistically different; percent ulceration in comparison to vehicle-dosed animal ([1]; both dose concentrations (1% and 10%), numerous days): percent ulceration that was lower in comparison to vehicle-dosed animal; disease onset (mean daily mucositis scores) ([1]; both groups treated with Nu-8 (1% and 10%), more so with 10%): modest attenuation of disease onset; mean percent weight change vs. vehicle group (AUC analysis, one-way ANOVA) [2]: statistically significant lower mean percent weight change
